How the values were obtained:
BCDIN3D [1] = target: T1, BCDIN3D (Homo sapiens, UniProt Q7Z5W3); test: BCDIN3D IC50 RFMS (RapidFire) assay with mini-helix; type: biochemical; conditions: mini-helix substrate 0.2 μM, SAM 6 μM, 25 nM enzyme
T1 sequence (Q7Z5W3 1-292): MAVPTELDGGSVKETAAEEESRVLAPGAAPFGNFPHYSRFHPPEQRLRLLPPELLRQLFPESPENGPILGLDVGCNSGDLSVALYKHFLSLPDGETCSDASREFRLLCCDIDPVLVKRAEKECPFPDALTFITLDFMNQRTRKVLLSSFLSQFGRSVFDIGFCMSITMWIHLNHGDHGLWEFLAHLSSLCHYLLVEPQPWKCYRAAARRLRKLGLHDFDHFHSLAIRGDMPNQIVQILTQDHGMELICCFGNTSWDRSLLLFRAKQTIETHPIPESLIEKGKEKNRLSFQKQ
Method in brief: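 25 nM enzyme preincubated 10 min at room temperature with compound (1% DMSO) in 25 mM Tris pH 8.0, 10 mM DTT, 1 mM EDTA, 0.03% BSA. Reaction started with 0.2 μM mini-helix plus 6 μM SAM, run 1 h at 37 °C, quenched with TCA; SAH product quantified by RapidFire MS against isotopic SAH standards.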

BCDIN3D [2] = target: T1, BCDIN3D; test: BCDIN3D InCellPulse thermal stability assay in transfected A549 cells; type: cell-based; conditions: transiently transfected A549 cells, heat shock 58° C. 15 min
Description: BCDIN3D InCellPulse™ Assay
The thermal stability assay was performed with lipofectamine 3000 transiently transfected A549 using the plasmid pICP-ePL-BCDIN3 Da. This plasmid encodes for BCDIN3D N-terminally fused to a Prolabel (ePL), complementing a split β-Galactosidase Enzyme System InCELL Pulse Technology (InCELL Hunter Detection Kit, DiscoverX/Eurofins, cat: 96-0079L). 20 μl A549 cells (1500 cell/well) were added with a multidrop device to compounds to a final DMSO concentration of 0.6% in 384-well polypropylene plate format in IMDM medium and pre-incubated with the compounds for 1 h at 37° C. and 5% CO2. Subsequently, a heat shock was applied to the entire sealed plate in a 58° C. water bath for 15 min. The plates were cooled to RT, spun down and 25 μl/well of EA Detection Solution at 3.3× (InCELL Hunter Detection Kit) was added per well. 21 μl of the mixture was added to a black 384-well measurement plate (Corning, PS, black, Flat Bottom, #3575), mix for 30 minutes on a plate shaker at RT. Finally, the luminescence was measured with a Perkin Elmer EnVision with 0.2 s measurement time in luminescence mode.

| IC50 (BCDIN3D [1]) [nM] | IC50 (BCDIN3D [2]) [nM] | Compound |
| --- | --- | --- |
| 444 | 3000 | Cn1ncc2c(Nc3cccc(F)c3)nc(NCC3(N)CC3)nc21 [Compound 2.29, 6-N-[(1-aminocyclopropyl)methyl]-4-N-(3-fluorophenyl)-1-methylpyrazolo[3,4-d]pyrimidine-4,6-diamine] |
| 545 | 1780 | Cc1nn(C)c2nc(NCC3(N)CC3)nc(Nc3ccc(C(F)(F)F)cc3)c12 [Compound 2.30, 6-N-[(1-aminocyclopropyl)methyl]-1,3-dimethyl-4-N-[4-(trifluoromethyl)phenyl]pyrazolo[3,4-d]pyrimidine-4,6-diamine] |
| 976 | 8240 | Cn1ncc2c(Nc3ccc(C#N)cc3)nc(NCC3(N)CC3)nc21 [Compound 2.31, 4-[[6-[(1-aminocyclopropyl)methylamino]-1-methylpyrazolo[3,4-d]pyrimidin-4-yl]amino]benzonitrile] |
| 176 | 815 | Cn1ncc2c(Nc3ccc(OC(F)(F)F)cc3)nc(NCC3(N)CC3)nc21 [Compound 2.32, 6-N-[(1-aminocyclopropyl)methyl]-1-methyl-4-N-[4-(trifluoromethoxy)phenyl]pyrazolo[3,4-d]pyrimidine-4,6-diamine] |
| 327 | 3860 | COc1ccc(Nc2nc(NCC3(N)CC3)nc3c2cnn3C)cc1 [Compound 2.33, 6-N-[(1-aminocyclopropyl)methyl]-4-N-(4-methoxyphenyl)-1-methylpyrazolo[3,4-d]pyrimidine-4,6-diamine] |

The next lines start with the compound.

| Compound | IC50 (BCDIN3D [1]) [nM] | IC50 (BCDIN3D [2]) [nM] |
| --- | --- | --- |
| Cn1ncc2c(Nc3cc(F)c(Cl)c(F)c3)nc(NCC3(N)CC3)nc21 [Compound 2.20, 6-N-[(1-aminocyclopropyl)methyl]-4-N-(4-chloro-3,5-difluorophenyl)-1-methylpyrazolo[3,4-d]pyrimidine-4,6-diamine] | 179 | 887 |
| Cn1ncc2c(Nc3cccc(OC(F)F)c3)nc(NCC3(N)CC3)nc21 [Compound 2.21, 6-N-[(1-aminocyclopropyl)methyl]-4-N-[3-(difluoromethoxy)phenyl]-1-methylpyrazolo[3,4-d]pyrimidine-4,6-diamine] | 514 | 2470 |
| CC(C)Oc1ccc(Nc2nc(NCC3(N)CC3)nc3c2cnn3C)cc1 [Compound 2.22, 6-N-[(1-aminocyclopropyl)methyl]-1-methyl-4-N-(4-propan-2-yloxyphenyl)pyrazolo[3,4-d]pyrimidine-4,6-diamine] | 332 | 1500 |
| Cn1ncc2c(Nc3ccc(Cl)c(F)c3)nc(NCC3(N)CC3)nc21 [Compound 2.23] | 59.1 | 473 |
| Cn1ncc2c(Nc3cccc(F)c3F)nc(NCC3(N)CC3)nc21 [Compound 2.24, 6-N-[(1-aminocyclopropyl)methyl]-4-N-(2,3-difluorophenyl)-1-methylpyrazolo[3,4-d]pyrimidine-4,6-diamine] | 2460 | 3500 |
| Cn1ncc2c(Nc3cc(F)ccc3F)nc(NCC3(N)CC3)nc21 [Compound 2.25, 6-N-[(1-aminocyclopropyl)methyl]-4-N-(2,5-difluorophenyl)-1-methylpyrazolo[3,4-d]pyrimidine-4,6-diamine] | 1540 | 3520 |
| Cn1ncc2c(NCc3ccc(F)cc3F)nc(NCC3(N)CC3)nc21 [Compound 2.26] | 1000 | 4650 |
| Cn1ncc2c(Nc3ccc(F)c(Cl)c3)nc(NCC3(N)CC3)nc21 [Compound 2.27, 6-N-[(1-aminocyclopropyl)methyl]-4-N-(3-chloro-4-fluorophenyl)-1-methylpyrazolo[3,4-d]pyrimidine-4,6-diamine] | 262 | 1810 |
| Cn1ncc2c(Nc3ccc(Cl)cc3)nc(NCC3(N)CC3)nc21 [Compound 2.28, 6-N-[(1-aminocyclopropyl)methyl]-4-N-(4-chlorophenyl)-1-methylpyrazolo[3,4-d]pyrimidine-4,6-diamine] | 57.4 | 1070 |

Reference: patent publication US20220370453A1 (Storm Therapeutics Ltd, priority 2019, published 2022)
